Laboratory results reported in US12534474B2, “Dihydrofuropyridine derivatives as rho-kinase inhibitors” (CHIESI FARMACEUTICI S.P.A., priority 2020, dated 2026).
pKi: −log10 of the molar value.

Legend:
Assay type in all cases: biochemical
[1] = molecular target: ROCK1 (Homo sapiens, UniProt Q13464); test: In vitro Rho kinase inhibitory activity assay, ADP-Glo, Method B (ATP 200 μM); conditions: read-out: Method B ROCK 1 (Ki)
Procedure: (§1) In Vitro Inhibitory Activity Assay Description (Method B)
(§2) The effectiveness of compounds of the present invention to inhibit Rho kinase activity can be determined in a 10 μL assay containing 40 mM Tris pH7.5, 20 mM MgCl2 0.1 mg/mL BSA, 50 μM DTT and 2.5 μM peptide substrate (Myelin Basic Protein) using an ADP-Glo kit (Promega). Compounds were dissolved in DMSO such that the final concentration of DMSO was 1% in the assay. All reactions/incubations are performed at 25° C. Compound (2 ul) and either Rho kinase 1 or 2 (4 μL) were mixed and incubated for 30 min. Reactions were initiated by addition of ATP (4 μL) such that the final concentration of ATP in the assay was 200 μM. After a 1 hour incubation 10 μL of ADP-Glo Reagent was added and after a further 45 minute incubation 20 ul of Kinase Detection Buffer was added and the mixture incubated for a further 30 minutes. The luminescent signal was measured on a luminometer. […] Compounds were tested in dose-response format and the inhibition of kinase activity was calculated at each concentration of compound. To determine the IC50 (concentration of compound required to inhibit 50% of the enzyme activity) data were fit to a plot of % inhibition vs Log 10 compound concentration using a sigmoidal fit with a variable slope and fixing the maximum to 100% and the minimum to 0%. To determine the Ki values the Cheng-Prusoff equation was utilized (Ki=IC50/(1+[S]/Km).

[2] = molecular target: ROCK2 (Homo sapiens, UniProt O75116); test: as above; conditions: read-out: Method B ROCK 2 (Ki)
ROCK2, sequence (O75116 whole entry): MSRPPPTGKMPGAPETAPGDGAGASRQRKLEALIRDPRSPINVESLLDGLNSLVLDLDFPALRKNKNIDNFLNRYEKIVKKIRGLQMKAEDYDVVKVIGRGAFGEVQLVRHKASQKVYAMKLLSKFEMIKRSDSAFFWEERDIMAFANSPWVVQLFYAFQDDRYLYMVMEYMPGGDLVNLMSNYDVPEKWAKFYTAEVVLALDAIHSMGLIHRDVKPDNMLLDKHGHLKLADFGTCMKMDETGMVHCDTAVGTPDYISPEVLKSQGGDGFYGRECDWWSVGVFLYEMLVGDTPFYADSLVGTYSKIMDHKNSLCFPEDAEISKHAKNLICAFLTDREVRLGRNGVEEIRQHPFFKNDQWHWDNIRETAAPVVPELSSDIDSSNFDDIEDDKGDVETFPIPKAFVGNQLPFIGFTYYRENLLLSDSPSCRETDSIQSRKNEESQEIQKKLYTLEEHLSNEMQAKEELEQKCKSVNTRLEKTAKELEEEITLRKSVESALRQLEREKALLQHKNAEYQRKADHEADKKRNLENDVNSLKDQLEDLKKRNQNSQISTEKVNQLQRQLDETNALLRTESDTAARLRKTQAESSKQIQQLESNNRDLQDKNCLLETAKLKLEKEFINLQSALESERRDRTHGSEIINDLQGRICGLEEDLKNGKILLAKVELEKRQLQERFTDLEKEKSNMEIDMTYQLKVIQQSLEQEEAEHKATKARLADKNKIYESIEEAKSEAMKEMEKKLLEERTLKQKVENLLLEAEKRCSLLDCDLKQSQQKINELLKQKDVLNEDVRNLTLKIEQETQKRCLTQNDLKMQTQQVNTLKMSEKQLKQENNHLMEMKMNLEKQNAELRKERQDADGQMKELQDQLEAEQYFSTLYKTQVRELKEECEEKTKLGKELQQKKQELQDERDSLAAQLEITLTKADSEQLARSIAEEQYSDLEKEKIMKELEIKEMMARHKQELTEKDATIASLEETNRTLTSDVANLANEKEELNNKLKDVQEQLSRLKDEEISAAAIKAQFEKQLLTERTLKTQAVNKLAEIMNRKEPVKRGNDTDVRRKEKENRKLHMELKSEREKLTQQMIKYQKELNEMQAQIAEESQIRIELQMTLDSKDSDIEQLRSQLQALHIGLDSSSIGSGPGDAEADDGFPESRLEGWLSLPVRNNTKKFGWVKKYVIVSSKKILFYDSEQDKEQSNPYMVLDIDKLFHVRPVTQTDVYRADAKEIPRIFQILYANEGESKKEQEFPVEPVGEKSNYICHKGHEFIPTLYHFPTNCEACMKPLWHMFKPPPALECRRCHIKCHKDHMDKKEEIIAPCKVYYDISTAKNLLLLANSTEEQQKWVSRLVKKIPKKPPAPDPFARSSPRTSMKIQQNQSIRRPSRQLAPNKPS
Procedure: as §1, §2

[3] = molecular target: PKA (Homo sapiens, UniProt P17612); test: In vitro inhibitory activity assay for PKA, ADP-Glo, reported as selectivity ratio vs ROCK2; conditions: Ki for PKA divided by Ki of ROCK2 (Method B)
Procedure: In Vitro Inhibitory Activity Assay Description for PKA
The effectiveness of compounds of the present invention to inhibit PKA activity can be determined in a 10 μL assay containing 40 mM Tris pH7.5, 20 mM MgCl2 0.1 mg/mL BSA, 50 μM DTT and 260 μM peptide substrate (kemptide) using an ADP-Glo kit (Promega). Compounds were dissolved in DMSO such that the final concentration of DMSO was 1% in the assay. All reactions/incubations are performed at 25° C. Compound and PKA enzyme (6 μL) were mixed and incubated for 30 min. Reactions were initiated by addition of ATP (4 μL) such that the final concentration of ATP in the assay was 10 μM. After a 30 minute incubation 10 μL of ADP-Glo Reagent was added and after a further 1 hour incubation 20 μL of Kinase Detection Buffer was added and the mixture incubated for a further 45 minutes. The luminescent signal was measured on a luminometer. […] Compounds were tested in dose-response format and the inhibition of kinase activity was calculated at each concentration of compound. To determine the IC50 (concentration of compound required to inhibit 50% of the enzyme activity) data were fit to a plot of % inhibition vs Log10 compound concentration using a sigmoidal fit with a variable slope and fixing the maximum to 100% and the minimum to 0%. To determine the Ki values the Cheng-Prusoff equation was utilized (Ki=IC50/(1+[S]/Km).
In vitro inhibitory activities for PKA were reported as selectivity ratio vs. ROCK2. Selectivity ratio PKA/ROCK2 was calculated by dividing the Ki value for PKA by Ki value of ROCK2 (Method B) and reported into table 1.

ROCK1, sequence (Q13464 whole entry): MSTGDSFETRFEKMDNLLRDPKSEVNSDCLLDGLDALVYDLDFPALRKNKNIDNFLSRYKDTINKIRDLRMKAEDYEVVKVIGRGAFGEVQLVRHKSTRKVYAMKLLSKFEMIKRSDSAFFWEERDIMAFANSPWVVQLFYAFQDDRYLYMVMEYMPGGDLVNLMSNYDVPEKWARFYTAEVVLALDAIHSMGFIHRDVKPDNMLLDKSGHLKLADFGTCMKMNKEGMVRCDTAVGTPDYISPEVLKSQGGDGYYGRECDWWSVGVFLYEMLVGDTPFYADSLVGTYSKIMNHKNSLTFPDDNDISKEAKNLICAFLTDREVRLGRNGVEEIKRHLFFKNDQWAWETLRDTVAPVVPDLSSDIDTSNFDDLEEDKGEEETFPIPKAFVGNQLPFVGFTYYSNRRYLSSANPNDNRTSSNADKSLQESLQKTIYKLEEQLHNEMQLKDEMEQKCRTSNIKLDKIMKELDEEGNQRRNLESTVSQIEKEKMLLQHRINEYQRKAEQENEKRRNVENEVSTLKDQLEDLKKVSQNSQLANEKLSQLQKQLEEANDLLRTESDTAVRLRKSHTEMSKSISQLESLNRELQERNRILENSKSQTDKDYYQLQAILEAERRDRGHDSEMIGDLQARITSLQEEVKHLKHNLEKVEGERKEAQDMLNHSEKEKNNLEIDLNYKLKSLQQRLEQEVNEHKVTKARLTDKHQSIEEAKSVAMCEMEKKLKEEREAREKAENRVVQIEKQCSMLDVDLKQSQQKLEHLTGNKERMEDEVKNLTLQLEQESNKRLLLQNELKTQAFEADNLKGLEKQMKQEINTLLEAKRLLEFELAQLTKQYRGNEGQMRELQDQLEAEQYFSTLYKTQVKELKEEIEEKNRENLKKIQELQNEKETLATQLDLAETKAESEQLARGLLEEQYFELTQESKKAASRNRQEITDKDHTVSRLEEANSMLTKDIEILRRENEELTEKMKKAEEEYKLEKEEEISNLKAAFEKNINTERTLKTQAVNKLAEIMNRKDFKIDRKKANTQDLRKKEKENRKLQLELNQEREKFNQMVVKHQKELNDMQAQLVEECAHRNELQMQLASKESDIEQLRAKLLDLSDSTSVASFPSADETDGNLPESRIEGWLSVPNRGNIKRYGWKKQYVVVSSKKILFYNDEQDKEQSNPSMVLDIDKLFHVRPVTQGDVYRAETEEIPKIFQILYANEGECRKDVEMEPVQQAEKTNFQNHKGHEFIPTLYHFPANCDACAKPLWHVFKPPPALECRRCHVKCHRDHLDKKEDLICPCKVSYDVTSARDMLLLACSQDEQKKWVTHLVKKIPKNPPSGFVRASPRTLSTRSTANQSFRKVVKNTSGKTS

Row | Compound | pKi [1] | pKi [2] | Ratio (PKA/ROCK2) [3]
1 | O=C(NCc1cocn1)c1cccc(CNc2ncc(-c3ccncc3)c3c2CCO3)c1 [Example 8, N-(oxazol-4-ylmethyl)-3-(((7-(pyridin-4-yl)-2,3-dihydrofuro[3,2-c]pyridin-4-yl)amino)methyl)benzamide] | 7.52 to 8.52 | ≥ 8.52 | *** (ratio≥10)
2 | COc1cc(NC(=O)c2cccc(CNc3ncc(-c4ccncc4)c4c3CCO4)c2)ncn1 [Example 31, N-(6-Methoxypyrimidin-4-yl)-3-(((7-(pyridin-4-yl)-2,3-dihydrofuro[3,2-c]pyridin-4-yl)amino)methyl)benzamide] | ≥ 8.52 | ≥ 8.52 | *** (ratio≥10)
3 | Cc1cc(CNC(=O)c2cccc(CNc3ncc(-c4ccncc4)c4c3CCO4)c2)no1 [Example 2, N-((5-methylisoxazol-3-yl)methyl)-3-(((7-(pyridin-4-yl)-2,3-dihydrofuro[3,2-c]pyridin-4-yl)amino)methyl)benzamide] | 7.52 to 8.52 | ≥ 8.52 | *** (ratio≥10)
4 | O=C(NCCCF)c1cccc(CNc2ncc(-c3ccncc3)c3c2CCO3)c1 [Example 4, N-(3-fluoropropyl)-3-(((7-(pyridin-4-yl)-2,3-dihydrofuro[3,2-c]pyridin-4-yl)amino)methyl)benzamide] | 7.52 to 8.52 | 7.52 to 8.52 | *** (ratio≥10)
5 | CNC(=O)c1cccc(CNc2ncc(-c3ccncc3)c3c2OCC3)c1 [Example C, N-methyl-3-(((4-(pyridin-4-yl)-2,3-dihydrofuro[2,3-c]pyridin-7-yl)amino)methyl)benzamide, reference compound] | < 7.52 | < 7.52 | *** (ratio≥10)
6 | CNC(=O)c1cccc(CNc2ncc(-c3ccncc3F)c3c2CCO3)c1 [Example 45, 3-(((7-(3-Fluoropyridin-4-yl)-2,3-dihydrofuro[3,2-c]pyridin-4-yl)amino)methyl)-N-methylbenzamide] | 7.52 to 8.52 | 7.52 to 8.52 | –
7 | O=C(NC1CC1)c1cccc(CNc2ncc(-c3ccncc3)c3c2CCO3)c1 [Example 16, N-cyclopropyl-3-(((7-(pyridin-4-yl)-2,3-dihydrofuro[3,2-c]pyridin-4-yl)amino)methyl)benzamide] | 7.52 to 8.52 | 7.52 to 8.52 | *** (ratio≥10)
8 | COc1ccc(NC(=O)c2cccc(CNc3ncc(-c4ccncc4)c4c3CCO4)c2)nc1 [Example 14, N-(5-methoxypyridin-2-yl)-3-(((7-(pyridin-4-yl)-2,3-dihydrofuro[3,2-c]pyridin-4-yl)amino)methyl)benzamide] | ≥ 8.52 | ≥ 8.52 | *** (ratio≥10)
9 | O=C(Nc1cccnn1)c1cccc(CNc2ncc(-c3ccncc3)c3c2CCO3)c1 [Example 17, N-(pyridazin-3-yl)-3-(((7-(pyridin-4-yl)-2,3-dihydrofuro[3,2-c]pyridin-4-yl)amino)methyl)benzamide] | 7.52 to 8.52 | 7.52 to 8.52 | *** (ratio≥10)
10 | O=C(NCC1CC1)c1cccc(CNc2ncc(-c3ccncc3)c3c2CCO3)c1 [Example 12, N-(cyclopropylmethyl)-3-(((7-(pyridin-4-yl)-2,3-dihydrofuro[3,2-c]pyridin-4-yl)amino)methyl)benzamide] | ≥ 8.52 | 7.52 to 8.52 | ** (5≤ratio<10)
11 | O=C(NCC1(O)CC1)c1cccc(CNc2ncc(-c3ccncc3)c3c2CCO3)c1 [Example 9, N-((1-hydroxycyclopropyl)methyl)-3-(((7-(pyridin-4-yl)-2,3-dihydrofuro[3,2-c]pyridin-4-yl)amino)methyl)benzamide] | 7.52 to 8.52 | 7.52 to 8.52 | *** (ratio≥10)
12 | Cn1ccc(CNC(=O)c2cccc(CNc3ncc(-c4ccncc4)c4c3CCO4)c2)n1 [Example 19, N-((1-methyl-1H-pyrazol-3-yl)methyl)-3-(((7-(pyridin-4-yl)-2,3-dihydrofuro[3,2-c]pyridin-4-yl)amino)methyl)benzamide] | 7.52 to 8.52 | ≥ 8.52 | *** (ratio≥10)
